# Laboratory results reported in patent publication US7452965B2, “Colon tumor specific binding peptides” (University of Utah Research Foundation, priority 2002, dated 2008).
# Where two headings read alike, the source gives them in different places. Bridge positions count the residues as written; N and C are the ends. Square brackets hold non-standard residues; d marks the D form. Ends that are not written are not given here. Peptide text beside a SMILES is read from it.
# How the values were obtained:
# HT29 cells [1] = details: for shift of EC50 of competition relative to RPM peptide: alanine mutants vs RPM peptide; for ability of peptide to compete RPM (CPIEDRPMC) phage binding to HT29 cells: peptide 0-1000 μM; for ability of peptide to compete RPM (CPIEDRPMC) phage binding to HT29 cells / level of RPM associated phage binding to HT29 cells in presence of competitor: 4° C.; for level of RPM associated phage binding to HT29 cells in presence of competitor: percentage of phage bound in absence of competitor
# Method: Phage binding assay. HT29 cells were incubated with peptide in binding buffer at concentrations of 0, 0.1, 1, 10, 100, or 1000 μM for 30 minutes at 4° C. After 30 minutes of incubation, 10^10 pfu of phage were added to the cells and incubated at 4° C. for an additional 45 minutes. Following incubation, cells were washed 6× with wash buffer and the phage remaining bound were eluted with glycine. The number of phage bound to the cells was quantified with real time PCR.
# To determine whether […] (SEQ ID NO: 134) displaying phage bind to HT29 cells specifically, a competition assay was performed using phage and synthetic peptides, peptides corresponding to the specific sequence, […] (SEQ ID NO: 134), and the non-specific sequence, […] (SEQ ID NO: 135), were synthesized by standard methods and oxidized to form a disulfide bond. Reaction of the peptides before and after oxidation with ElIman's reagent was performed to verify presence of the disulfide bond. […] In FIG. 2A, HT29 cells were incubated with increasing log concentrations of […] (SEQ ID NO: 134) peptide and with a constant number of either specific or non-specific phage. The number of phage binding to the HT29 cells was quantified and the percentage binding calculated based on the number of phage that bind in the absence of competitor. The sequence […] The reciprocal experiment was also done with HT29 cells incubated with increasing log concentrations of specific or non-specific peptide and a constant concentration of phage displaying the peptide […] (SEQ ID NO: 134).
# The phage selection procedure produced naturally occurring substitution mutants so the phage and the peptide could be used to determine a functional consensus sequence for the family. HT29 cells were incubated with increasing log concentrations of […] (SEQ ID NO: 134) peptide and a constant number of phage displaying one of the sequences were selected.
# To examine the importance of each residue within the RPM sequence for binding to HT29 cells, peptides were synthesized having alanine mutations in either the arginine, proline, or methionine residue and used in phage competition assay as described above.
# HT29 cells [2] = test: RPM-FITC immunofluorescence staining of cultured cells (confocal microscopy); assay type: cell-based
# Method: Cell Culture: HT29, HCT116, or a 50% mixture of HT29 and HCT116 cells were plated on glass slides (Nalge). Wells were incubated with 10 μM of RPM-FITC peptide for 45 minutes at 4° C. or 37° C. After washing with wash buffer, cells were blocked with 1% NGS, 0.1% BSA, 0.1% Triton-X100 in PBS. Following the blocking step, wells were incubated with the polyclonal p53 antibody, D10, (Santa Cruz) for 1 hour at room temperature. The wells were washed and incubated with the secondary antibodies GαFITC Alexa 488 (Molecular Probes) and GαMouse Alexa 647 (Molecular Probes) and the nuclear stain Topro-3 (Molecular Probes). Wells were washed and mounted using Pro-Long Anti-fade (Molecular Probes). Slides were analyzed by confocal microscopy.
# The peptide then was tested to determine whether it was able to differentiate HT29 from HCT116 cells. In order to distinguish HT29 from HCT116 cells in our immunohistochemical assays, staining was carried out in the presence of the transcription factor, p53. Staining for the protein p53 is a way to visually discriminate HT29 from HCT116 cells, since p53 is mutated and accumulates in HT29 cells but is wild type in HCT116 cells and thus, is rapidly degraded. […] To test the ability of the fluorescein conjugated peptide (RPM-FITC) to preferentially bind HT29 cells, HT29 and HCT116 cells were stained with RPM-FITC. […] When a mixture of HT29 and HCT116 cells was incubated with RPM-FITC and concurrently analyzed for the presence of p53, cells with the highest level of p53 protein also bound RPM-FITC (FIG. 5A).
# The ability of a molecule to translocate across the cell membrane is important for drug delivery. HT29 cells were incubated for 1 hour at either 4° C. or 37° C. in the presence of 100 uM RPM-FITC. After incubation, cells were washed, fixed with 2% paraformaldehyde, then incubated with an anti-FITC secondary antibody to amplify the fluorescence signal.
# human colon tumor = test: Peptide-binding assay on frozen tissue sections
# Method: (§1) A biopsy of sporadic colon adenocarcinoma, liver and lung sarcoma, and grossly uninvolved colon, liver, lung, and stomach were frozen in optimum cutting temperature (OCT) and […] cryostat sections placed on glass slides. Sections were stained with H&E and untreated adjacent sections were incubated with RPM-FITC. After incubating with RPM-FITC in binding buffer for 45 minutes at 4° C., slides were washed and mounted using Pro-Long Anti-Fade (Molecular Probes). Nuclei were visualized by a quick incubation with Topro-3 (Molecular Probes) present in the last wash. Samples were analyzed by confocal microscopy.
# [3] = tested on: lung and liver cancer, grossly uninvolved lung, liver, and stomach; test: Peptide-binding assay on frozen tissue sections; set-up: species or system human; details: cryostat sections
# Method: as §1
# To determine whether RPM-FITC was able to bind cancers originated from tissues other than colon or to other normal tissues, a peptide-binding assay was performed on cryostat sections of lung and liver cancer, and grossly uninvolved lung, liver, and stomach. As a positive control, a section of colon tumor was stained in parallel with the other sections. […] Binding to HT29 Cells is Dependent on the Amino Acids, RPMC-C (SEQ ID NO: 136).
# HCT116 cells = test: MTT cell viability after RPM-KLAK or KLAK; assay type: cell-based; details: 72 hours at 37° C.
# Method: (§2) RPM-KLAK (SEQ ID NO: 132) and KLAK (SEQ ID NO: 133) on HT29 and HCT116 cells. HT29 and HCT116 cells were incubated with increasing log concentrations of RPM-KLAK (SEQ ID NO: 132) or KLAK (SEQ ID NO: 133) for 72 hours at 37° C. After incubation, MTT was added to a final concentration of […] and incubated at 37° C. for 1 hour. The media/MTT was removed carefully and the cells dissolved with 0.1N HCl in isopropanol. Absorbance was read on a plate reader (Cytofluor II, Perceptive Biosystems) at 570 nm.
# (§3) Since RPM-FITC is internalized at 37° C., RPM may be used to deliver a toxin to HT29 cells. […] Cells that were incubated with (KLAK)2 (SEQ ID NO: 138) alone or with free peptide were refractory to death induced by the toxin. However, when a peptide that was specific and also internalized by cells was conjugated to (KLAK)2 (SEQ ID NO: 138), the cells were killed. RPM was coupled to (KLAK)2 (SEQ ID NO: 138) and incubated with HT29 and HCT116 cells with either (KLAK)2 (SEQ ID NO: 138) alone as a negative control or RPM-(KLAK)2 (SEQ ID NO: 5). Cells were treated for 72 hours at 37° C. At the end of the incubation, cell viability was measured by MTT assay. […] This was indeed observed for HCT116 incubation with RPM (KLALK)2 (SEQ ID NO: 5) (FIG. 6B).
# HT29 cells [4] = test: MTT cell viability after RPM-KLAK or KLAK; assay type: cell-based; details: 72 hours at 37° C.
# Method: as §2, §3
# HT29 cells [5] = test: Protease assay: RPM phage binding to protease-treated cells; details: 37° C.
# Method: HT29 cells were incubated at 37° C. with either active or boiled Collagenase diluted 1:20 for 10 minutes, Trypsin-EDTA 0.25% (Gibco) for 5 minutes or Proteinase K (Gibco) diluted 1:600 for 1 minute. After incubation, cells were then incubated with RPM bearing phage as described above. The number of phage remaining bound was quantified by real time PCR.
# (§4) In order to further this observation, HT29 cells were treated with active or boiled proteases to determine the effect of treatment on the ability of an RPM displaying phage to bind. HT29 cells were treated with active or boiled collagenase for 15 minutes, trypsin for 5 minutes, or proteinase K for 0.5 minutes at 37° C. After protease treatment, cells were washed, then an equal number of phage were added and allowed to bind. […] The decrease in phage binding to the HT29 cells was due to the protease activity since boiling the proteases abolished the effect with phage binding returning to levels of that observed for PBS treated cells (FIG. 6B). […] After treating HT29 cells with proteases as described above, MTT was added to the cells and incubated for 45 minutes at 37° C. After incubation, the cells were solubilized with 0.1N HCl in isopropanol and the absorbance due to MTT incorporation was determined.
# HT29 cells [6] = test: MTT viability of protease-treated cells; assay type: cell-based; details: MTT 45 minutes at 37° C. after protease treatment
# Method: as §4
compound,measurement,setting,value
CC[C@H](C)[C@@H]1NC(=O)[C@@H]2CCCN2C(=O)[C@@H](N)CSSC[C@@H](C(=O)O)NC(=O)[C@H](CCSC)NC(=O)[C@@H]2CCCN2C(=O)[C@H](C)NC(=O)[C@H](CC(=O)O)NC(=O)[C@H](CCC(=O)O)NC1=O [APM] (H-CPIEDAPMC-OH; disulfide 1-9 (inferred); N-terminus and C-terminus assumed),EC50,HT29 cells [1],690 µM
same,shift of EC50 of competition relative to RPM peptide,HT29 cells [1],~100 fold
"CC[C@H](C)[C@@H]1NC(=O)[C@@H]2CCCN2C(=O)[C@@H](N)CSSC[C@@H](C(=O)O)NC(=O)[C@H](CCSC)NC(=O)[C@@H]2CCCN2C(=O)[C@H](CCCNC(=N)N)NC(=O)[C@H](CC(=O)O)NC(=O)[C@H](CCC(=O)O)NC1=O [CPIEDRPMC, cys-pro-ile-glu-asp-arg-pro-met-cys] (H-CPIEDRPMC-OH; disulfide 1-9)",ability of peptide to compete RPM (CPIEDRPMC) phage binding to HT29 cells,HT29 cells [1],able to compete
same,ability of peptide to compete RPM (CPIEDRPMC) phage binding to HT29 cells,HT29 cells [1]; listed as RPM peptide,successfully abolished binding
same,level of RPM associated phage binding to HT29 cells in presence of competitor,HT29 cells [1],less than 4%
same,EC50,"HT29 cells [1]; read-out: EC50 of competition, competition of RPM displaying phage on HT29 cells",5 µM
same,effect of unlabeled competitor on RPM-FITC staining of HT29 cells,HT29 cells [2],able to abolish
same,effect of unlabeled competitor on RPM-FITC binding to colon tumor,human colon tumor,abrogate binding
same,"labeling of lung and liver cancer and uninvolved lung, liver, stomach",[3],failed to stain
CC[C@H](C)[C@@H]1NC(=O)[C@@H]2CCCN2C(=O)[C@@H](N)CSSC[C@@H](C(=O)O)NC(=O)[C@H](C)NC(=O)[C@@H]2CCCN2C(=O)[C@H](CCCNC(=N)N)NC(=O)[C@H](CC(=O)O)NC(=O)[C@H](CCC(=O)O)NC1=O [RPA] (H-CPIEDRPAC-OH; disulfide 1-9 (inferred); N-terminus and C-terminus assumed),EC50,HT29 cells [1],545 µM
same,shift of EC50 of competition relative to RPM peptide,HT29 cells [1],~100 fold
"(KLAK)2: antimicrobial toxin that selectively disrupts the mitochondrial membrane of eukaryotic cells, SEQ ID NO: 138 / 133 (KLAKKLAK) [reference compound]",effect on HCT116 cell viability,HCT116 cells,did not effect the viability
same,effect on HT29 cell viability,HT29 cells [4],did not effect the viability
A11 D RPM: RPM peptide consisting of all D amino acids ([dC][dP][dI][dE][dD][dR][dP][dM][dC]; cysteine pairing not given here),ability of peptide to compete RPM (CPIEDRPMC) phage binding to HT29 cells,HT29 cells [1],not able to compete
same,ability of peptide to compete RPM (CPIEDRPMC) phage binding to HT29 cells,HT29 cells [1]; listed as peptide synthesized with all D amino acids,failed to compete
CKHLGPQLC (disulfide 1-9 (inferred)) [reference compound],ability of peptide to compete RPM (CPIEDRPMC) phage binding to HT29 cells,HT29 cells [1],not able to compete
same,ability of peptide to compete RPM (CPIEDRPMC) phage binding to HT29 cells,HT29 cells [1]; listed as unrelated peptide,failed to block
same,level of RPM associated phage binding to HT29 cells in presence of competitor,HT29 cells [1],100%
same,effect of unlabeled competitor on RPM-FITC staining of HT29 cells,HT29 cells [2],unaffected
"RPM middle: peptide bearing the RPM motif in the middle of the peptide, CPIRPMEDC (SEQ ID NO: 137)",fold less potent than RPM in competing with phage for HT29 cell binding,HT29 cells [1]; compared to RPM,over 100 fold
same,ability of peptide to compete RPM (CPIEDRPMC) phage binding to HT29 cells,HT29 cells [1],failed to compete
collagenase,decrease of RPM phage binding to active protease treated HT29 cells,HT29 cells [5],85%
same,average absorbance (MTT incorporation) of treated cells,HT29 cells [6],0.189
trypsin,decrease of RPM phage binding to active protease treated HT29 cells,HT29 cells [5],90%
same,average absorbance (MTT incorporation) of treated cells,HT29 cells [6],0.175
